Literature values, collected in patent publication US8293243B2 (priority 2004, dated 2012).
*1 amine or outer side, *2 acyl side, *3 side chain or, on linkers, in order; H or OH if unused. Where a SMILES comes first, the peptide text is derived from it. Bridges are numbered along the chain shown (N, C = ends). Roman numbers before positions name the chains, in order. [ ]: non-standard residue; d: D form. Actinocin(9to1) = Cc1c2oc3c(C)ccc(C(=O)[*:1])c3nc-2c(C(=O)[*:2])c(N)c1=O; NMeV = CN[C@H](C(=O)O)C(C)C; Sar = CNCC(=O)O

Details: in vivo; cited from earlier work

## Cc1c2oc3c(C)ccc(C(=O)N[C@@H]4C(=O)N[C@H](C(C)C)C(=O)N5CCC[C@H]5C(=O)N(C)CC(=O)N(C)[C@@H](C(C)C)C(=O)O[C@@H]4C)c3nc-2c(C(=O)N[C@@H]2C(=O)N[C@H](C(C)C)C(=O)N3CCC[C@H]3C(=O)N(C)CC(=O)N(C)[C@@H](C(C)C)C(=O)O[C@@H]2C)c(N)c1=O [Actinomycin D] (I: T[dV]P[Sar][NMeV] / II: T[dV]P[Sar][NMeV]; ester I:1-I:C, II:1-II:C; linker I:N-II:N via Actinocin(9to1))
  passage of the blood-brain barrier: does not pass the blood-brain barrier
